Experimental data taken from patent US12031977B2, “Ex vivo system for determining multiple drug-drug transporter interactions and methods of use thereof” (Massachusetts Institute of Technology, priority 2019, dated 2024).
Structures can show the parent of a compound that is named as a salt. Where two headings read alike, the source gives them in different places. d = 2'-deoxy (DNA); r = 2'-OH (RNA)

Legend:
P-gp, BCRP, and MRP2 [1] = assay: mock screening of model drugs: ex vivo perfusion through porcine small intestine tissue after siRNA knockdown; conditions: transporter(s) found by siRNA knockdown perfusion screen
Excerpt: (§5) Pig tissue was freshly sourced from local slaughter houses (i.e., Leman & Sons, Hilltown Pork, and Blood Farm). Small intestinal tissue was isolated from intact gastrointestinal tract immediately after euthanasia, and dissected longitudinally. A series of washes with PBS supplemented with 5% Antibiotic-Antimycotic solution (Thermo Fisher Scientific) was applied to the tissue until clean under sterile conditions. Then, the tissue was mounted on a device filled with PBS (5% Antibiotic-Antimycotic) solution and cultured at 37° C. incubation with 5% CO2 supplement.
(§6) siRNA duplex solution was diluted into PBS solution to a final concentration of 1 μM. […] Tissue was cultured for 24 hours before the perfusion assay.
(§7) The device consists of a bottom reservoir plate and an upper load plate. Both plates were made by laser cutting (Universal Laser Systems VLS6.60) a standard 48-well plate outline and well pattern (Corning 48 well plate, transparent) as well as magnet holes onto an acrylic sheet (McMaster-Carr 1/4″ thickness). Neodymium magnets (K&J Magnetics Cylinder, 3/16″× 3/16″, N52, NI) were press fitted into the magnet holes of both plates. Seal film (Thermo) was applied to seal the bottoms of the wells of the reservoir plate, and PBS solution was loaded into each well. Then, tissue was placed on top of the reservoir plate and the upper load plate was laid on top of the tissue. The magnets were oriented to align and attract the two plates together, ensuring a strong seal between the wells.
(§8) For ex vivo perfusion study, the detection of each drug is based on either fluorescent or absorbance measurements according to the literature. A 1 mg/mL drug stock was prepared for each drug in PBS (pH 7.4). For water-insoluble drugs, a final concentration of DMSO in PBS was used to solubilize drugs.

Pgp, BCRP, MRP2 = conditions: cited from earlier work
P-gp, BCRP, or MRP2 = assay: in vivo pharmacokinetic study with oral transport inhibitor pre-treatment; conditions: oral gavage, serum, 60 minutes; verapamil for P-gp, imatinib for BCRP, or probenecid for MRP2; p<0.05
P-gp, BCRP, and MRP2 [2] = tested on: P-gp, BCRP, and MRP2
Excerpt: as §5, §6, §7, §8

[3] = target: T1, P-gp, BCRP, MRP2, PEPT1, and MCT1 (Sus scrofa, UniProt Q8MIB3); assay: ex vivo perfusion of known substrates and non-substrates after knockdown of a single transporter; format: in vitro ADME, porcine; conditions: other drugs p<0.01
T1 construct: Small intestinal tissue was isolated from intact gastrointestinal tract immediately after euthanasia; from tissue; host or cells: porcine small intestine explant, single transporter knocked down by siRNA
T1 sequence (Q8MIB3 1-656): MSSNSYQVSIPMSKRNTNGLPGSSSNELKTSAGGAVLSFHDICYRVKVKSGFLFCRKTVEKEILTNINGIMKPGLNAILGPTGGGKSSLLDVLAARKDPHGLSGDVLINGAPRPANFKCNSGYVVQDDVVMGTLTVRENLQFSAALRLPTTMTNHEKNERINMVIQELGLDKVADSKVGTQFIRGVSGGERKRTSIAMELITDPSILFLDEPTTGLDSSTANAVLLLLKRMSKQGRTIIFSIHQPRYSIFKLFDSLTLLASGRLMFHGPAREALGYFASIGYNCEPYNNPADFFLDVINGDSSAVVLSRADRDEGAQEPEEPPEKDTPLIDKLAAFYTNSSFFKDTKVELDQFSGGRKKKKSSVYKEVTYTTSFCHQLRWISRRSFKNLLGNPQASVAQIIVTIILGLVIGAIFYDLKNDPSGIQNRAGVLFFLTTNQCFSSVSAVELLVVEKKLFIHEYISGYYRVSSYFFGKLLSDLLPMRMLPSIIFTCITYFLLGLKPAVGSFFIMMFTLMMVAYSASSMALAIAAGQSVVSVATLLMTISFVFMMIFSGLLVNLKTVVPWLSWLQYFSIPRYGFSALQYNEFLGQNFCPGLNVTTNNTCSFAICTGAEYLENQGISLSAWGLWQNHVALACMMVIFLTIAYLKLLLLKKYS
Procedure: If a molecule is transported by a specific transporter, its diffusion across the tissue should be impacted by selectively down regulating that transporter. To validate that the platform accurately captures this behavior, a total of 23 known transporter-drug relationships was tested.

cytochrome P450 3A4 = cytochrome P450 3A4 (Homo sapiens, UniProt P08684); conditions: cited from earlier work
Chain of cytochrome P450 3A4 (P08684 whole entry, the tested form may be a part): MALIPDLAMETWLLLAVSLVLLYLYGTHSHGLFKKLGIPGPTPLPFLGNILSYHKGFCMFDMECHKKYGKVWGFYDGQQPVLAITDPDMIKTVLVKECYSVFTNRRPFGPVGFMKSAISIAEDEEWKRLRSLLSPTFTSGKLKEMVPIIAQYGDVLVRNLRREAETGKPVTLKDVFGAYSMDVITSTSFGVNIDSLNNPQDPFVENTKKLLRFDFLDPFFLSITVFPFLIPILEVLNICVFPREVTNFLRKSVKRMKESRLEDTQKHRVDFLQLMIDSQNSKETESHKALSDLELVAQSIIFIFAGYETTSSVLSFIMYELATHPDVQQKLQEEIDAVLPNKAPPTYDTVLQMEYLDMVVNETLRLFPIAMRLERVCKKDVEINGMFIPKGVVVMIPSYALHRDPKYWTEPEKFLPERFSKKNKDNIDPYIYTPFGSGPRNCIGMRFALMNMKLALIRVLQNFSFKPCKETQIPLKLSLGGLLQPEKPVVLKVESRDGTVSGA

P-gp [4] = target: T2, P-gp (Sus scrofa, UniProt K7GMM7); assay: ex vivo perfusion versus altered P-gp expression; format: in vitro ADME, porcine
T2 construct: Small intestinal tissue was isolated from intact gastrointestinal tract immediately after euthanasia; from tissue; host or cells: porcine small intestine explant, P-gp level lowered by graded siRNA doses
T2 sequence (K7GMM7 1-1248): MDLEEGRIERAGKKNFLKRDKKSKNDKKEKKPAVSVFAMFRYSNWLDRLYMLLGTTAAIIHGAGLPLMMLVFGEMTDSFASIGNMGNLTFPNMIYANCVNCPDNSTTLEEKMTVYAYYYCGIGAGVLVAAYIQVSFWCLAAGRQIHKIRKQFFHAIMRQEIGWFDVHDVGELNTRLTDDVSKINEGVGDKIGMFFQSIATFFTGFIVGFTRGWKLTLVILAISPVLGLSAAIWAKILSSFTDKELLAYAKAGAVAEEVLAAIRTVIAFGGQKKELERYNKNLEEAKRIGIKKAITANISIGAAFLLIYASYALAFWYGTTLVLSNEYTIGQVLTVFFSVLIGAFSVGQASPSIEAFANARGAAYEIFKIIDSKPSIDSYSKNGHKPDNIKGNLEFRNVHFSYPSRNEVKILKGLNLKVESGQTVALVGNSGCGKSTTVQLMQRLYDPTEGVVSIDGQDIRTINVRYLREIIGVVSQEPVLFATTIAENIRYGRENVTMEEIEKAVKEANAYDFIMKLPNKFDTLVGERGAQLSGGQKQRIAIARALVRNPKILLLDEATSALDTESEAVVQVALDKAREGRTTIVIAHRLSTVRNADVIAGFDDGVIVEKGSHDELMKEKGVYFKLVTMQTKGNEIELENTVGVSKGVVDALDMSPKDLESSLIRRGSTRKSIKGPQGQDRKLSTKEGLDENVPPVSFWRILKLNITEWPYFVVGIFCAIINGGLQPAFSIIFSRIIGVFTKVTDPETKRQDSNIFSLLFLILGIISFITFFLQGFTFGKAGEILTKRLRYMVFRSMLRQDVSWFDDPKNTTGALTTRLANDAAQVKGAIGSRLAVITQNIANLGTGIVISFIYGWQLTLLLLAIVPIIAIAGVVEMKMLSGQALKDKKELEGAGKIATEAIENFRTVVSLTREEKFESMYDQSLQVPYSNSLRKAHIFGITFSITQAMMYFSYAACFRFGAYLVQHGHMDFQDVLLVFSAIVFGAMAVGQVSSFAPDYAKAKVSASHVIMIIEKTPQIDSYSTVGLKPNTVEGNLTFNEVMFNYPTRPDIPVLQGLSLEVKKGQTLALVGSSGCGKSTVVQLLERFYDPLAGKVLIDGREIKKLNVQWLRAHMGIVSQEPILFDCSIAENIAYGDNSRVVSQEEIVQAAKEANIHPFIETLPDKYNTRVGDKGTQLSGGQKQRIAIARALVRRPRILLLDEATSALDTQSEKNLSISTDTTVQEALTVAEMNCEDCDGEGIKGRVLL
Excerpt: (§1) Next perfusion of drugs that are known to be substrates for multiple transporters was studied. […] To be able to delineate such effects, it was aimed to down regulate multiple transporters simultaneously. Two siRNAs targeting P-gp and BCRP were co-delivered with varying concentrations of each siRNA and noted that expression levels could be fine-tuned in a dose-dependent, linear fashion (Pearson r=0.79 and 0.96, FIG. 5C). Next, how the simultaneous and gradual down regulation of transporter expression impacts drug perfusion was studied. Perfusion of BCRP-specific substrates increased linearly with reduced BCRP-expression (dauricine R=0.7, hymecromone sulfate R=0.81) but were not affected by altering P-gp expression (p>0.28 one-tailed Z test at maximum siPgp concentration; FIG. 5C).

BCRP [5] = target: T3, BCRP (Sus scrofa, UniProt Q8MIB3); assay: ex vivo perfusion versus gradually reduced BCRP expression; format: in vitro ADME, porcine
T3 construct: Small intestinal tissue was isolated from intact gastrointestinal tract immediately after euthanasia; from tissue; host or cells: porcine small intestine explant, BCRP level lowered by graded siRNA doses
T3 sequence (Q8MIB3 1-656): T1 sequence (Q8MIB3 1-656)
Excerpt: as §1

BCRP and MRP2 = assay: ex vivo perfusion with doxycycline co-treatment
Procedure: Four candidate drugs that are known substrates of BCRP and MRP2 were manually selected to study whether they could potentially interact with doxycycline.
As a first-line test (FIG. 10), ex vivo perfusion experiments were conducted to test for changes in absorption when co-administering the candidates with doxycycline.

BCRP [6] = assay: siRNA dose versus transporter expression (western-blot); format: cell-based, porcine; conditions: co-delivery with varying concentrations, 0 to 25 μM
Procedure: (§2) FIGS. 5A-5B show the level of reduction in P-gp and BCRP drug transporter expression depends on the dose of siRNA (0 to 25 μM) administered to the intestinal tissue explant.
(§3) Tissue was dissected and snap frozen in liquid nitrogen. Every 1 mg of tissue sample was homogenized in 100 μL of RIPA buffer supplied with protease inhibitor (Roche) by Berkin 24-cycle homogenizer. After centrifugation, the protein concentration from the supernatant was determined by BCA assay (Pierce) according to manufactory protocol. A total of 100 μg of protein was loaded on each lane for western-blotting. Blots were imaged with Bio-rad universal Hood Ii Molecular Imager (1312M) with Chemiluminescence method. Contrast setting was set for auto-contrast for all images.
(§4) Next perfusion of drugs that are known to be substrates for multiple transporters was studied. […] To be able to delineate such effects, it was aimed to down regulate multiple transporters simultaneously. Two siRNAs targeting P-gp and BCRP were co-delivered with varying concentrations of each siRNA and noted that expression levels could be fine-tuned in a dose-dependent, linear fashion (Pearson r=0.79 and 0.96, FIG. 5C). Next, how the simultaneous and gradual down regulation of transporter expression impacts drug perfusion was studied. […]

P-gp [7] = assay: as above; format: cell-based, porcine; conditions: co-delivery with varying concentrations, 0 to 25 μM
Procedure: as §2, §3, §4

[8] = transporter(s) reported in previous literature for the drug

CCOc1nc2cccc(C(=O)OC(C)OC(=O)OC3CCCCC3)c2n1Cc1ccc(-c2ccccc2-c2nnn[nH]2)cc1 (stereo not shown) [Candesartan cilexetil]
Platform Target (P-gp, BCRP, and MRP2 [1]): no target
Literature Target (Pgp, BCRP, MRP2; [8]): Pgp

NC(=O)N1c2ccccc2C=Cc2ccccc21 [Carbamazepine]
Platform Target (P-gp, BCRP, and MRP2 [1]): Pgp & BCRP
Literature Target (Pgp, BCRP, MRP2; [8]): Pgp
relative AUC (drug absorption) with versus without transport inhibitor (P-gp, BCRP, or MRP2): did not show the expected effect

CN(C)[C@@H]1C(O)=C(C(N)=O)C(=O)[C@@]2(O)C(O)=C3C(=O)c4c(O)ccc(Cl)c4[C@@](C)(O)[C@H]3C[C@@H]12 [Chlorotetracycline]
Literature Target (Pgp, BCRP, MRP2): no target
Platform Target (P-gp, BCRP, and MRP2 [2]): no target

O=c1ccc2ccccc2o1 [Coumarin]
Platform Target (P-gp, BCRP, and MRP2 [1]): Pgp
Literature Target (Pgp, BCRP, MRP2; [8]): Pgp

C[C@H]1c2cccc(O)c2C(=O)C2=C(O)[C@]3(O)C(=O)C(C(N)=O)=C(O)[C@@H](N(C)C)[C@@H]3[C@@H](O)[C@@H]21 [Doxycycline]
Platform Target (P-gp, BCRP, and MRP2 [1]): BCRP & MRP2
known substrate of transporters (Pgp, BCRP, MRP2): P-gp and OAT1
Literature Target (Pgp, BCRP, MRP2; [8]): no target
relative AUC (drug absorption) with versus without transport inhibitor (P-gp, BCRP, or MRP2): novel BCRP and MRP2 substrate

N[C@@H](Cc1ccccc1)C(=O)O [L-phenylalanine]
Platform Target (P-gp, BCRP, and MRP2 [1]): no target
Literature Target (Pgp, BCRP, MRP2; [8]): no target

CN(C)C(=O)C(CCN1CCC(O)(c2ccc(Cl)cc2)CC1)(c1ccccc1)c1ccccc1 [Loperamide]
Literature Target (Pgp, BCRP, MRP2): no target
Platform Target (P-gp, BCRP, and MRP2 [2]): no target

CC(C)(C)NCC(O)COc1cccc2c1CC(O)C(O)C2 (stereo not shown) [Nadolol]
Platform Target (P-gp, BCRP, and MRP2 [1]): BCRP
Literature Target (Pgp, BCRP, MRP2; [8]): no target

NCCC(O)(P(=O)(O)O)P(=O)(O)O [Pamidronate disodium salt hydrate]
Platform Target (P-gp, BCRP, and MRP2 [1]): Pgp
Literature Target (Pgp, BCRP, MRP2; [8]): no target

CN1C(C(=O)Nc2ccccn2)=C(O)c2ccccc2S1(=O)=O [Piroxicam]
Platform Target (P-gp, BCRP, and MRP2 [1]): no target
Literature Target (Pgp, BCRP, MRP2; [8]): no target

CNC(=C[N+](=O)[O-])NCCSCc1ccc(CN(C)C)o1 [Ranitidine]
Platform Target (P-gp, BCRP, and MRP2 [1]): Pgp & BCRP & MRP2
Literature Target (Pgp, BCRP, MRP2; [8]): Pgp & BCRP

CC(C)c1nc(N(C)S(C)(=O)=O)nc(-c2ccc(F)cc2)c1/C=C/[C@@H](O)C[C@@H](O)CC(=O)O [Rosuvastatin]
p, two-tailed T test, of perfusion increase after knockdown [3]: 2%

CC(C)(C)NCC(O)c1cc(O)cc(O)c1 (stereo not shown) [Terbutaline]
Platform Target (P-gp, BCRP, and MRP2 [1]): no target
Literature Target (Pgp, BCRP, MRP2; [8]): no target

CC(=O)CC(c1ccccc1)c1c(O)c2ccccc2oc1=O (stereo not shown) [Warfarin]
Platform Target (P-gp, BCRP, and MRP2 [1]): Pgp & BCRP
known substrate of transporters (Pgp, BCRP, MRP2): BCRP and MRP2
Literature Target (Pgp, BCRP, MRP2; [8]): Pgp & BCRP
metabolism through cytochrome P450 3A4 (cytochrome P450 3A4): metabolized through cytochrome P450 3A4

COc1cc2c(cc1OC)[C@@H](Cc1ccc(Oc3cc(C[C@@H]4c5cc(OC)c(OC)cc5CCN4C)ccc3O)cc1)N(C)CC2 [dauricine]
perfusion on altering P-gp expression (P-gp [4]): not affected
R, perfusion increase versus reduced BCRP-expression (BCRP [5]; pig): 0.7

C[C@H]1O[C@@H](O[C@H]2[C@@H](O)C[C@H](O[C@H]3[C@@H](O)C[C@H](O[C@H]4CC[C@@]5(C)[C@H](CC[C@@H]6[C@@H]5C[C@@H](O)[C@]5(C)[C@@H](C7=CC(=O)OC7)CC[C@]65O)C4)O[C@@H]3C)O[C@@H]2C)C[C@H](O)[C@@H]1O [digoxin]
known substrate of transporters (Pgp, BCRP, MRP2): BCRP and MRP2
metabolism through cytochrome P450 3A4 (cytochrome P450 3A4): not cytochrome substrates
perfusion / absorption upon co-treatment with doxycycline (BCRP and MRP2): increased absorption

CC[C@@H](C(N)=O)N1CCCC1=O [levetiracetam]
known substrate of transporters (Pgp, BCRP, MRP2): BCRP and MRP2
metabolism through cytochrome P450 3A4 (cytochrome P450 3A4): not cytochrome substrates
perfusion / absorption upon co-treatment with doxycycline (BCRP and MRP2): increased absorption

C=CC[C@@H]1/C=C(\C)C[C@H](C)C[C@H](OC)[C@H]2O[C@@](O)(C(=O)C(=O)N3CCCC[C@H]3C(=O)O[C@H](/C(C)=C/[C@@H]3CC[C@@H](O)[C@H](OC)C3)[C@H](C)[C@@H](O)CC1=O)[C@H](C)C[C@@H]2OC [tacrolimus]
known substrate of transporters (Pgp, BCRP, MRP2): BCRP and MRP2
metabolism through cytochrome P450 3A4 (cytochrome P450 3A4): metabolized through cytochrome P450 3A4
perfusion / absorption upon co-treatment with doxycycline (BCRP and MRP2; ex vivo, LC-MS/MS, p<0.05): increased absorption

Ergotamine D-tartrate
Platform Target (P-gp, BCRP, and MRP2 [1]): Pgp & BCRP & MRP2
Literature Target (Pgp, BCRP, MRP2; [8]): Pgp

hymecromone sulfate
perfusion on altering P-gp expression (P-gp [4]; BCRP-specific substrates, p>0.28 one-tailed Z test at maximum siPgp concentration): not affected
R, perfusion increase versus reduced BCRP-expression (BCRP [5]; BCRP-specific substrates, linear relation, FIG. 5C): 0.81

siRNA targeting BCRP: siRNA duplex, sense SEQ ID NO: 95, antisense SEQ ID NO: 96 (sense ACUUCUUCCUGGACGUCAUUATT; antisense UAAUGACGUCCAGGAAGAAGUTT; chemistry not given here)
Pearson r, expression level versus siRNA dose (BCRP [6]): 0.96

siRNA targeting P-gp: siRNA duplex, sense SEQ ID NO: 91, antisense SEQ ID NO: 92 (sense AUGACAGUGUACGCCUAUUAUTT; antisense AUAAUAGGCGUACACUGUCAUTT; sugars from the 5' end r21 d2, backbone not given here)
Pearson r, expression level versus siRNA dose (P-gp [7]): 0.79
